“And” between values parts separate entries of the source, which are not always exact repeats. Equal entries are not always repeated.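 Cells were grown in 96-well plates and exposed to each compound for 48 hours at five concentrations; endpoints were interpolated linearly between bracketing concentrations, or set to the highest concentration if not reached. At the GI50, growth is halved. At the TGI there is no net growth.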

Drawing on PubChem BioAssay (NCI), this text covers GI50 and TGI for seven compounds.

Common to all, as to assay: DTP human tumour cell line panel, 48 h
The test system of assay [1] is K-562 leukemia.
Assay [2] has as its system M14 melanoma.
Assay [3] concerns MALME-3M melanoma.
The test system of assay [4] is MCF7 breast.
Assay [5] relates to OVCAR-4 ovarian.
The test system of assay [6] is SK-MEL-28 melanoma.
For assay [7], the system named is SK-MEL-5 melanoma.
The test system of assay [8] is SK-OV-3 ovarian.
In assay [9] the test system is SNB-19 CNS.
For assay [10], the system named is U251 CNS.

By GI50 is commonly meant the concentration at which growth is held to half of that of the control. For orientation: TGI means the concentration at which net growth stops. Read a high TGI as lower sensitivity of the cells. Consider `CN1CCN(C(=O)[C@@]2(C)CC[C@]3(C)CC[C@]4(C)C(=CC[C@@H]5[C@@]6(C)CC[C@H](OC(=O)c7cccnc7)C(C)(C)[C@@H]6CC[C@]54C)[C@@H]3C2)CC1`, for which the GI50 is 2150 nM in [1]; 1620 nM in [2]; 1780 nM in assay [3]; 1490 nM in assay [4]; 1780 nM in assay [5]; 1790 nM in [6]. The GI50 in assay [7] was 1650 nM; in [8] it was 10400 nM; in assay [9], 1740 nM; in assay [10], 1570 nM. The total growth inhibition concentration (TGI) in assay [1] turned out to be 6360 nM; in assay [2], 3100 nM; in assay [3] it was 3540 nM; in assay [4], 3170 nM; in assay [5], 3590 nM; in assay [6], 3340 nM. The total growth inhibition concentration (TGI) was found to be 3020 nM in assay [7], 22000 nM in assay [8], 3530 nM in assay [9] and 2950 nM in assay [10].
On to `O=C(C(=O)c1cccnc1)c1cccnc1`, for which the GI50 in assay [1], in assay [2], in assay [3], in assay [4], in assay [5] and in assay [6] was more than 100000 nM throughout. In addition, the GI50 in [7], in [8], in [9] and in [10] was more than 100000 nM in each case. For the same compound, the TGI in assay [1], in [2], in [3], in [4], in assay [5] and in assay [6] was more than 100000 nM in each case. Moreover, the concentration for total growth inhibition (TGI) in assay [7], in assay [8], in assay [9] and in assay [10] was more than 100000 nM throughout.
Regarding `CC(=O)OCC1OC([S-])C(OC(C)=O)C(OC(C)=O)C1OC(C)=O.[Au+].c1ccc(CN2[CH-]N(Cc3ccccc3)C(c3ccccc3)=C2c2ccccc2)cc1`, the GI50 in [1] was 2590 nM and 397 nM; in [2], 2270 nM and 798 nM; in [3], 1930 nM and 278 nM; in [4], 1650 nM and 827 nM; in assay [5], 3540 nM and 688 nM; in [6] it was 2330 nM and 468 nM. Also, the GI50 was 4950 nM and 839 nM in [7]; 1700 nM and 300 nM in assay [9]; 1740 nM and 251 nM in assay [10]. Further, the concentration for total growth inhibition (TGI) in assay [1] was 7800 nM and 15100 nM; in assay [2], 5660 nM and 3000 nM; in [3], 4290 nM and 1240 nM; in assay [4], 3520 nM and 2040 nM; in assay [5], 15300 nM and 5820 nM; in assay [6], 5760 nM and 2290 nM. The total growth inhibition concentration (TGI) in assay [8] was 26300 nM and 5170 nM; in [9], 3180 nM and 1180 nM; in assay [10] it was 3200 nM and 942 nM.
As for `CC[C@H](C)[C@H](NC(=O)[C@H]1CCCCN1C)C(=O)N(C)[C@H](C[C@@H](OC(C)=O)c1nc(C(=O)NC23C4C5C2C2C3C4C52C(=O)OC)cs1)C(C)C` (stereo partly drawn), the GI50 in [1] was 0.952 nM and 2.5 nM; in [2], 7.13 nM and < 2.5 nM; in assay [3] it was 2.88 nM and 2.5 nM; in assay [4] it was 0.557 nM and 2.5 nM; in assay [5] it was 50.6 nM; in assay [6], 3120 nM. Further, the GI50 is 0.838 nM and 2.5 nM in [7]; 10.2 nM and 2.5 nM in [8]; 3.96 nM and 2.5 nM in assay [9]; 4.24 nM and 2.5 nM in assay [10]. The TGI in assay [1] was more than 25000 nM; in assay [2] it was less than 2.5 nM; in [3], more than 25000 nM; in assay [4] it was more than 25000 nM; in [5], more than 25000 nM; in assay [6], more than 25000 nM. Moreover, the concentration for total growth inhibition (TGI) in assay [7] was 24.1 nM and 10.2 nM; in [8], more than 25000 nM; in assay [9] it was more than 25000 nM; in assay [10] it was more than 25000 nM.
With `CCN(CC)CCOc1ccc(NC(=O)C(C(C)C)N2C(=O)/C(=C/c3ccc(Br)cc3)SC2=S)cc1` (stereo not drawn), the GI50 in assay [1] was 2240 nM; in [2], 2070 nM; in assay [3] it was 1710 nM; in assay [4], 1990 nM; in assay [5] it was 2250 nM; in [6], 2070 nM. Also, the GI50 is 3710 nM in [7], 15900 nM in [8], 2300 nM in assay [9] and 1940 nM in assay [10]. Besides, the TGI in [1] was 5860 nM; in [2] it was 4270 nM; in assay [3] it was 3300 nM; in [4] it was 4340 nM; in [5], 5670 nM; in [6], 4350 nM. In addition, the TGI stood at 12800 nM in assay [7], 31700 nM in assay [8], 6090 nM in [9] and 4080 nM in assay [10].
As to `CN(C)C[C@@H]1CCn2cc(c3ccccc32)C2=C(C(=O)NC2=O)c2cn(c3ccccc23)CCO1`, the GI50 in assay [1] is 916 nM; in [2], 1030 nM; in [3] it was 1170 nM; in assay [4], 1740 nM; in assay [5], 2580 nM; in [6], 1030 nM. In addition, the GI50 in assay [7] was 1390 nM; in assay [8] it was 2080 nM; in assay [9] it was 4490 nM; in [10] it was 1900 nM. The TGI in assay [1] is 3370 nM; in assay [2], more than 10000 nM; in assay [3] it was 5010 nM; in assay [4], more than 10000 nM; in assay [5], more than 10000 nM; in assay [6], 8130 nM. The total growth inhibition concentration (TGI) was 7110 nM in assay [7], more than 10000 nM in assay [8], more than 10000 nM in assay [9] and more than 10000 nM in [10].
Regarding `C=C1C(=O)O[C@H]2C3OC3(C)CC/C=C(/C(=O)OC)[C@@H](OC(C)=O)[C@H](OC(=O)C3(C)OC3C)[C@H]12` (stereo partly drawn), the concentration for 50% growth inhibition (GI50) was 416 nM and 0.359 µg/mL in assay [1]; 1.5 µM and 850 nM and 0.499 µg/mL in assay [2]; 1250 nM and 257 nM in assay [3]; 334 nM in assay [4]; 1.88 µM and 2.18 µg/mL in assay [5]; 1.06 µM and 1.74 µM and 0.336 µg/mL in assay [6]. The GI50 in [7] was 1.88 µM and 1.91 µM and 2.6 µg/mL; in assay [8], 9.25 µM and 26.5 µg/mL; in assay [9], 23.1 µg/mL; in [10] it was 3.73 µM and 5.25 µg/mL. The TGI in [1] is 1.15 µM and 2.25 µM and 1.15 µg/mL; in [2] it was 3.13 µM and 2.4 µM and 1.29 µg/mL; in [3], 4350 nM and 941 nM; in assay [4] it was 7160 nM and 1280 nM; in assay [5], 3.63 µM and 4.47 µg/mL; in [6], 3.55 µM and 9.53 µM and 0.779 µg/mL. For the same compound, the concentration for total growth inhibition (TGI) was 3.87 µM and 7.72 µM and 9.58 µg/mL in assay [7]; 18.9 µM and 48 µg/mL in assay [8]; > 7.5 µM and 53.5 µg/mL in assay [9]; 12.7 µM and 14.9 µg/mL in assay [10].
